For one experiment, the target named is CDC7 (Homo sapiens, UniProt O00311). The experiment is described as follows: CDC7 inhibition, biochemical chemiluminescence assay (Kinase Glo, IC50 determination). The procedure, abridged:
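CDC7 enzyme preincubated with compound 10 min at ambient temperature, then ATP mix in Tris Base added; reaction 90 min at 24-27 °C. Remaining ATP quantified by Kinase Glo luminescence to give IC50.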
On the technique in general: Kinase-Glo measures the ATP left after a reaction by luminescence.

Another experiment concerns the target CK2 (Homo sapiens, UniProt P68400). The experiment is described as follows: CK2 inhibition, biochemical chemiluminescence holoenzyme assay (Kinase Glo, IC50 determination). As to conditions: Table 1 activity class; symbol given only if active; read-out: CK2 IC50 (Activity C). The gist of the method:
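Holoenzyme CK2 assay; compounds pre-incubated with substrate and enzyme, then reacted 150 min at 24-27° C. Remaining ATP measured as luminescence with Kinase Glo, and IC50 derived from the signal.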

Experiment [1] concerns the target PIM (PIM-1, PIM-2, and/or PIM-3). Put plainly: PIM-1, PIM-2 and PIM-3 inhibition, biochemical chemiluminescence assays (Kinase Glo, IC50 determination). Conditions: Table 1 activity class; PIM refers to PIM-1, PIM-2, and/or PIM-3; read-out: PIM IC50 (Activity B).
Where [2] appears, read: Table 1 activity class, symbol given only if active, read-out: CDC7 IC50 (Activity A).
Setting [3] is: compounds in Table 1, read-out: CDC7 IC50 value.

Read-outs that look alike come from different tables or passages of the source. Where only a bound is given, the exact number is not on record here.

Sequence of CDC7 (O00311 whole entry): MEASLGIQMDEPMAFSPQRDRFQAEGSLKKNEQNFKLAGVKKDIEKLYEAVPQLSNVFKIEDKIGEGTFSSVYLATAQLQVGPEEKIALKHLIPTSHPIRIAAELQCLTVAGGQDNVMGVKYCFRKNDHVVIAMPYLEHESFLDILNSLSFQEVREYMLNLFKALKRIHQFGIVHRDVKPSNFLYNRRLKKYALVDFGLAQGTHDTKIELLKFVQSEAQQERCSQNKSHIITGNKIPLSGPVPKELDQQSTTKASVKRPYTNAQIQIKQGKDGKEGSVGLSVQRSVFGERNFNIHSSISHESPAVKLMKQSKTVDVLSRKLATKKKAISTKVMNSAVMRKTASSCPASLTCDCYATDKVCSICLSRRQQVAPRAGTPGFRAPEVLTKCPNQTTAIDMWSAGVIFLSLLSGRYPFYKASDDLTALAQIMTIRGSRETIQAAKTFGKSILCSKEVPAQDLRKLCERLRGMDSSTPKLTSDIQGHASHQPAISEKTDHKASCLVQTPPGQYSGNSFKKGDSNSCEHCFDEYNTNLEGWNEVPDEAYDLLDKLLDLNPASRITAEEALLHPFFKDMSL
Sequence of CDC7 (Q9UBU7 whole entry partner): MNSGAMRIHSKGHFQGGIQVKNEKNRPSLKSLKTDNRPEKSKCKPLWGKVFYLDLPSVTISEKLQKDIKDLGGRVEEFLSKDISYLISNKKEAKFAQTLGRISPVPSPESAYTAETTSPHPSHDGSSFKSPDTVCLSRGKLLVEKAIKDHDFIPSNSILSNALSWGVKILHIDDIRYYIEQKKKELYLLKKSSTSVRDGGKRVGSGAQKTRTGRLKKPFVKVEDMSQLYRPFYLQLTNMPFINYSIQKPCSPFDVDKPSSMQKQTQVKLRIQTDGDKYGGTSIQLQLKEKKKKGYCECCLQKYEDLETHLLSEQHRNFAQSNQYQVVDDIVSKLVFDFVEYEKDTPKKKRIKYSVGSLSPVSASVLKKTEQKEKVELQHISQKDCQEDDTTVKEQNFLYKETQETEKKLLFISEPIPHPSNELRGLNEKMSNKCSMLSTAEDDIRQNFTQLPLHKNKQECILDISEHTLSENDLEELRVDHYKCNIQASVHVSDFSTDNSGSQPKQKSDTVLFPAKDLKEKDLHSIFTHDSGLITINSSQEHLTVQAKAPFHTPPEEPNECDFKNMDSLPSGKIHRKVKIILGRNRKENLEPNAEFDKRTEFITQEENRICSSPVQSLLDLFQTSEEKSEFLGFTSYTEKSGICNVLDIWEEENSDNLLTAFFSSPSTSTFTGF
Sequence of CK2 (P68400 whole entry): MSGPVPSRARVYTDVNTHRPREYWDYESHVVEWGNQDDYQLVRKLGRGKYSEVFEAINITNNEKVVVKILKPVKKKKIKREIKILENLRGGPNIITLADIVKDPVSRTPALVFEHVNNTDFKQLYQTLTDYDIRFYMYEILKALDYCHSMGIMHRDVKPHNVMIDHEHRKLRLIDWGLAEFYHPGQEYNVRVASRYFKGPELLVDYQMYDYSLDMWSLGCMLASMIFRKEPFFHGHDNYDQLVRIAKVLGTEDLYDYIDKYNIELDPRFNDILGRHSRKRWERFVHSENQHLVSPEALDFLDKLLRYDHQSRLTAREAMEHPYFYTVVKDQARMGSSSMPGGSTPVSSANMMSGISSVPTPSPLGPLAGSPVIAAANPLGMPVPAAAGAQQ
Sequence of CK2 (P67870 whole entry partner): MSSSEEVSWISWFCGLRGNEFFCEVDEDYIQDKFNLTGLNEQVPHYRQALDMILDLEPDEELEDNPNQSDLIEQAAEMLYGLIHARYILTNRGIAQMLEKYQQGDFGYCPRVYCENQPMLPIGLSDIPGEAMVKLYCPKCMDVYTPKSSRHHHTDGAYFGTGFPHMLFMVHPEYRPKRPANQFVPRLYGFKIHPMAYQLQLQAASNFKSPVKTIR

Take `O=c1[nH]c(CNC2CCCC2)nc2c1oc1ccc(Br)cc12` [Compound 199, 8-bromo-2-[(cyclopentylamino)methyl][1]benzofuro[3,2-d]pyrimidin-4(3H)-one]: the IC50 – broadly, the concentration that gives 50% inhibition – was below 10 µM at CDC7 (setting [2]), below 0.1 µM on CDC7 (setting [3]), below 10 µM at CK2 and below 10 µM in experiment [1].
As for `CC1CCN(Cc2nc3c(oc4ccc(Br)cc43)c(=O)[nH]2)CC1` [Compound 201, 8-bromo-2-[(4-methylpiperidin-1-yl)methyl][1]benzofuro[3,2-d]pyrimidin-4(3H)-one], the half-inhibitory concentration (IC50) on CDC7 (setting [2]) is below 10 µM; at CDC7 (setting [3]), below 0.1 µM; on CK2 it was below 10 µM; in experiment [1], below 10 µM.
As to `Nc1n[nH]c2cc(-c3nc4c(oc5ccc(Br)cc54)c(=O)[nH]3)c(Cl)cc12` [Compound 205, 2-(3-amino-5-chloro-1H-indazol-6-yl)-8-bromo[1]benzofuro[3,2-d]pyrimidin-4(3H)-one], the IC50 (at CDC7 (setting [2]); at CK2; in experiment [1]) was below 10 µM each time.
Turning to `O=c1[nH]c(Nc2cccnc2)nc2c1oc1ccc(Br)cc12` [Compound 214, 8-bromo-2-(pyridin-3-ylamino)[1]benzofuro[3,2-d]pyrimidin-4(3H)-one], the 50% inhibitory concentration (IC50) at CDC7 (setting [2]) was below 10 µM; on CDC7 (setting [3]), below 0.1 µM; on CK2, below 10 µM; in experiment [1] it was below 10 µM.
As to `C[C@@H]1CNC[C@H](C)N1Cc1nc2c(oc3ccc(Br)cc32)c(=O)[nH]1` [Compound 216, 8-bromo-2-{[(2R,6S)-2,6-dimethylpiperazin-1-yl]methyl}[1]benzofuro[3,2-d]pyrimidin-4(3H)-one], the IC50 is below 10 µM at CDC7 (setting [2]), below 0.1 µM at CDC7 (setting [3]), below 10 µM on CK2 and below 10 µM in experiment [1].
On to `O=C(CC1CCNCC1)Nc1ccc(-c2nc3c(oc4ccc(Br)cc43)c(=O)[nH]2)c(Cl)c1` [Compound 217, N-[4-(8-bromo-4-oxo-3,4-dihydro[1]benzofuro[3,2-d]pyrimidin-2-yl)-3-chlorophenyl]-2-piperidin-4-ylacetamide], for which the IC50 (on CDC7 (setting [2]); on CK2; in experiment [1]) was below 10 µM each time.
On to `Nc1n[nH]c2ccc(-c3nc4c(oc5ccc(Br)cc54)c(=O)[nH]3)cc12` [Compound 220, 2-(3-amino-1H-indazol-5-yl)-8-bromo[1]benzofuro[3,2-d]pyrimidin-4(3H)-one], for which the IC50 (on CDC7 (setting [2]); on CK2; in experiment [1]) was below 10 µM throughout.
On to `CN1CC(c2nc3c(oc4ccc(Br)cc43)c(=O)[nH]2)C1` [Compound 221, 8-Bromo-2-(1-methylazetidin-3-yl)[1]benzofuro[3,2-d]pyrimidin-4(3H)-one], for which the IC50 was below 10 µM on CDC7 (setting [2]), below 0.1 µM at CDC7 (setting [3]), below 10 µM on CK2 and below 10 µM in experiment [1].
As to `NC1CCC(c2nc3c(oc4ccc(Br)cc43)c(=O)[nH]2)CC1` (stereo not shown) [Compound 223, 2-(4-Aminocyclohexyl)-8-bromo[1]benzofuro[3,2-d]pyrimidin-4(3H)-one], the IC50 at CDC7 (setting [2]) is below 10 µM; at CDC7 (setting [3]) it was below 0.1 µM; on CK2 it was below 10 µM; in experiment [1], below 10 µM.
With `O=C(NCc1ccccc1Cl)C1CCN(Cc2nc3c(oc4ccc(Br)cc43)c(=O)[nH]2)C1` (stereo not shown) [Compound 224, 1-[(8-bromo-4-oxo-3,4-dihydro[1]benzofuro[3,2-d]pyrimidin-2-yl)methyl]-N-[(2-chlorophenyl)methyl]pyrrolidine-3-carboxamide], the IC50 (on CDC7 (setting [2]); at CK2; in experiment [1]) was below 10 µM in each case.
In the case of `NCCNc1nc2c(oc3ccc(Br)cc32)c(=O)[nH]1` [Compound 231, 2-[(2-aminoethyl)amino]-8-bromo[1]benzofuro[3,2-d]pyrimidin-4(3H)-one], the IC50 on CDC7 (setting [2]) was below 10 µM; at CDC7 (setting [3]), below 0.1 µM; at CK2, below 10 µM; in experiment [1] it was below 10 µM.
Take `CCC(C)NCc1nc2c(oc3ccc(Br)cc32)c(=O)[nH]1` (stereo not shown) [Compound 232, 8-bromo-2-{[(1-methylpropyl)amino]methyl}[1]benzofuro[3,2-d]pyrimidin-4(3H)-one]: the IC50 at CDC7 (setting [2]) is below 10 µM; on CDC7 (setting [3]) it was below 0.1 µM; at CK2, below 10 µM; in experiment [1], below 10 µM.
As to `O=c1[nH]c(CNCc2ccccc2Cl)nc2c1oc1ccc(Br)cc12` [Compound 235, 8-bromo-2-({[(2-chlorophenyl)methyl]amino}methyl)[1]benzofuro[3,2-d]pyrimidin-4(3H)-one], the IC50 (at CDC7 (setting [2]); on CK2; in experiment [1]) was below 10 µM in each case.
For `O=c1[nH]c(CN2CCC(O)CC2)nc2c1oc1ccc(Br)cc12` [Compound 242, 8-bromo-2-[(4-hydroxypiperidin-1-yl)methyl][1]benzofuro[3,2-d]pyrimidin-4(3H)-one], the half-inhibitory concentration (IC50) was below 10 µM on CDC7 (setting [2]), below 0.1 µM at CDC7 (setting [3]), below 10 µM on CK2 and below 10 µM in experiment [1].
Regarding `O=C(CCN1CCOCC1)Nc1ccc(-c2nc3c(oc4ccc(Br)cc43)c(=O)[nH]2)c(Cl)c1` [Compound 248, N-[4-(8-bromo-4-oxo-3,4-dihydro[1]benzofuro[3,2-d]pyrimidin-2-yl)-3-chlorophenyl]-3-morpholin-4-ylpropanamide], the 50% inhibitory concentration (IC50) (on CDC7 (setting [2]); on CK2; in experiment [1]) was below 10 µM throughout.
`O=c1[nH]c(CNC2CCC2)nc2c1oc1ccc(Br)cc12` [Compound 252, 8-bromo-2-[(cyclobutylamino)methyl][1]benzofuro[3,2-d]pyrimidin-4(3H)-one]: the IC50 on CDC7 (setting [2]) was below 10 µM; on CDC7 (setting [3]) it was below 0.1 µM; at CK2, below 10 µM; in experiment [1], below 10 µM.
As for `O=c1[nH]c(CNCCc2c[nH]cn2)nc2c1oc1ccc(Br)cc12` [Compound 259, 8-bromo-2-({[2-(1H-imidazol-4-yl)ethyl]amino}methyl)[1]benzofuro[3,2-d]pyrimidin-4(3H)-one], the IC50 on CDC7 (setting [2]) is below 10 µM; on CDC7 (setting [3]), below 0.1 µM; at CK2 it was below 10 µM; in experiment [1] it was below 10 µM.
Take `O=c1[nH]c(CNCC(O)CO)nc2c1oc1ccc(Br)cc12` (stereo not shown) [Compound 262, 8-bromo-2-{[(2,3-dihydroxypropyl)amino]methyl}[1]benzofuro[3,2-d]pyrimidin-4(3H)-one]: the IC50 is below 10 µM at CDC7 (setting [2]), below 0.1 µM at CDC7 (setting [3]), below 10 µM at CK2 and below 10 µM in experiment [1].
For `O=C(NCc1cccc(Cl)c1)C1CCN(Cc2nc3c(oc4ccc(Br)cc43)c(=O)[nH]2)C1` (stereo not shown) [Compound 264, 1-[(8-bromo-4-oxo-3,4-dihydro[1]benzofuro[3,2-d]pyrimidin-2-yl)methyl]-N-[(3-chlorophenyl)methyl]pyrrolidine-3-carboxamide], the concentration for half-maximal inhibition (IC50) (at CDC7 (setting [2]); at CK2; in experiment [1]) was below 10 µM in each case.
`CNc1cc(-c2nc3c(oc4ccc(Br)cc43)c(=O)[nH]2)c(Cl)cn1` [Compound 265, 8-bromo-2-[5-chloro-2-(methylamino)pyridin-4-yl][1]benzofuro[3,2-d]pyrimidin-4(3H)-one]: the IC50 (at CDC7 (setting [2]); on CK2; in experiment [1]) was below 10 µM each time.
As to `CCOC(=O)C1CCN(Cc2nc3c(oc4ccc(Br)cc43)c(=O)[nH]2)C1` (stereo not shown) [Compound 269, Ethyl 1-[(8-bromo-4-oxo-3,4-dihydro[1]benzofuro[3,2-d]pyrimidin-2-yl)methyl]pyrrolidine-3-carboxylate], the IC50 at CDC7 (setting [2]) was below 10 µM; at CDC7 (setting [3]), below 0.1 µM; on CK2, below 10 µM; in experiment [1], below 10 µM.
Turning to `NC(=O)C1CCN(Cc2nc3c(oc4ccc(Br)cc43)c(=O)[nH]2)C1` (stereo not shown) [Compound 270, 1-[(8-bromo-4-oxo-3,4-dihydro[1]benzofuro[3,2-d]pyrimidin-2-yl)methyl]pyrrolidine-3-carboxamide], the IC50 is below 10 µM at CDC7 (setting [2]), below 0.1 µM on CDC7 (setting [3]), below 10 µM at CK2 and below 10 µM in experiment [1].
With `CN1CCCC1c1nc2c(oc3ccc(Br)cc32)c(=O)[nH]1` (stereo not shown) [Compound 273, 8-Bromo-2-(1-methylpyrrolidin-2-yl)[1]benzofuro[3,2-d]pyrimidin-4(3H)-one], the IC50 was below 10 µM on CDC7 (setting [2]), below 0.1 µM at CDC7 (setting [3]), below 10 µM at CK2 and below 10 µM in experiment [1].
For the compound `O=C(Nc1ccc(-c2nc3c(oc4ccc(Br)cc43)c(=O)[nH]2)c(Cl)c1)c1ccncc1Cl` [Compound 275, N-[4-(8-bromo-4-oxo-3,4-dihydro[1]benzofuro[3,2-d]pyrimidin-2-yl)-3-chlorophenyl]-3-chloropyridine-4-carboxamide], the IC50 (at CDC7 (setting [2]); at CK2; in experiment [1]) was below 10 µM in each case.
Turning to `O=C(Nc1ccc(-c2nc3c(oc4ccc(Br)cc43)c(=O)[nH]2)c(Cl)c1)c1ccnc(Cl)c1` [Compound 276, N-[4-(8-bromo-4-oxo-3,4-dihydro[1]benzofuro[3,2-d]pyrimidin-2-yl)-3-chlorophenyl]-2-chloropyridine-4-carboxamide], the IC50 (at CDC7 (setting [2]); at CK2; in experiment [1]) was below 10 µM in each case.
On to `COCCNCc1nc2c(oc3ccc(Br)cc32)c(=O)[nH]1` [Compound 277, 8-bromo-2-({[2-(methyloxy)ethyl]amino}methyl)[1]benzofuro[3,2-d]pyrimidin-4(3H)-one], for which the IC50 was below 10 µM at CDC7 (setting [2]), below 0.1 µM on CDC7 (setting [3]), below 10 µM at CK2 and below 10 µM in experiment [1].

These data come from patent US20090247559A1 (Exelixis, Inc., priority 2007, published 2009).
